Laboratory results from patent publication US20210387978A1, “CYCLOBUTYL DIHYDROQUINOLINE SULFONAMIDE COMPOUNDS” (AMGEN INC., priority 2020, published 2021).

How the values were obtained:
Human Nav1.7 = target: T1, Human Nav1.7 (Homo sapiens, UniProt Q15858); experiment: IonWorks Barracuda (IWB) automated patch clamp assay; format: cell-based; conditions: human Nav1.7 currents, HEK cells, population patch-clamp, state- and use-dependent voltage protocol; read-out: hNaV1.7 IWB-U IC50
T1 construct: expressed in transfected cells; host or cells: Spiking HEK cells (without Kir2.1 transfection)
Description: Ionaworks Barracuda […] Automated Patch Clamp Assay (Same Protocol for Both Human and Mouse)
Human Nav1.7 currents were recorded in population patch-clamp mode with the IWB automated electrophysiology system (Molecular Devices, LLC, Sunnyvale, Calif.). Spiking HEK cells (without Kir2.1 transfection) were cultured and prepared for recordings as previously described for IonWorks Quattro testing^1. The external solution consisted of the following (in mM): NaCl 140, KCl 5, CaCl2 2, MgCl2 1, HEPES 10, and glucose 11, pH 7.4, with N-methyl-D-glucamine at 320 mOsmol. […] From a holding potential of −110 mV, currents were elicited by a train of 26 depolarizations of 150 ms duration to −20 mV at a frequency of 5 Hz. Cells were then clamped to −20 mV for a period of 4 minutes in the presence of a single concentration of test compound. Following this compound incubation period, cells were clamped to −110 mV for three seconds to recover unbound channels and put through the same 26 pulse voltage protocol as above. Peak inward current during the 26th pulse to −20 mV in the presence of compound was divided by the peak inward current evoked by the 26th pulse to −20 mV in the absence of compound to determine percent inhibition. Concentration-response curves of percent inhibition as a function of concentration were generated to calculate IC50 values as described in Kornecook, T. J.; Yin, R.; Altmann, S.; et al. Pharmacologic Characterization of AMG8379, a Potent and Selective Small Molecule Sulfonamide Antagonist of the Voltage-Gated Sodium Channel NaV1. 7.
The potency of the compounds of the present invention were evaluated on human Nav1.7 channels using the above described IonWorks Barracuda automated electrophysiology platform that evaluates the ability of compounds to block sodium conductance through Nav1.7 channels. A voltage-protocol that prosecutes both state-dependent as well as use-dependent inhibition was used as these modes of action are thought to be more relevant for the native state of Nav1.7 channels in pain sensing neurons in vivo.

CYP3A4 = experiment: Human CYP 3A4 Induction Assay (mRNA, cryopreserved human hepatocytes); format: in vitro ADME; conditions: 10 uM test compound, 72 hours, percent of control (POC), rifampin positive control
Excerpt: Human CYP 3A4 Induction Assay

T1 sequence (Q15858 whole entry): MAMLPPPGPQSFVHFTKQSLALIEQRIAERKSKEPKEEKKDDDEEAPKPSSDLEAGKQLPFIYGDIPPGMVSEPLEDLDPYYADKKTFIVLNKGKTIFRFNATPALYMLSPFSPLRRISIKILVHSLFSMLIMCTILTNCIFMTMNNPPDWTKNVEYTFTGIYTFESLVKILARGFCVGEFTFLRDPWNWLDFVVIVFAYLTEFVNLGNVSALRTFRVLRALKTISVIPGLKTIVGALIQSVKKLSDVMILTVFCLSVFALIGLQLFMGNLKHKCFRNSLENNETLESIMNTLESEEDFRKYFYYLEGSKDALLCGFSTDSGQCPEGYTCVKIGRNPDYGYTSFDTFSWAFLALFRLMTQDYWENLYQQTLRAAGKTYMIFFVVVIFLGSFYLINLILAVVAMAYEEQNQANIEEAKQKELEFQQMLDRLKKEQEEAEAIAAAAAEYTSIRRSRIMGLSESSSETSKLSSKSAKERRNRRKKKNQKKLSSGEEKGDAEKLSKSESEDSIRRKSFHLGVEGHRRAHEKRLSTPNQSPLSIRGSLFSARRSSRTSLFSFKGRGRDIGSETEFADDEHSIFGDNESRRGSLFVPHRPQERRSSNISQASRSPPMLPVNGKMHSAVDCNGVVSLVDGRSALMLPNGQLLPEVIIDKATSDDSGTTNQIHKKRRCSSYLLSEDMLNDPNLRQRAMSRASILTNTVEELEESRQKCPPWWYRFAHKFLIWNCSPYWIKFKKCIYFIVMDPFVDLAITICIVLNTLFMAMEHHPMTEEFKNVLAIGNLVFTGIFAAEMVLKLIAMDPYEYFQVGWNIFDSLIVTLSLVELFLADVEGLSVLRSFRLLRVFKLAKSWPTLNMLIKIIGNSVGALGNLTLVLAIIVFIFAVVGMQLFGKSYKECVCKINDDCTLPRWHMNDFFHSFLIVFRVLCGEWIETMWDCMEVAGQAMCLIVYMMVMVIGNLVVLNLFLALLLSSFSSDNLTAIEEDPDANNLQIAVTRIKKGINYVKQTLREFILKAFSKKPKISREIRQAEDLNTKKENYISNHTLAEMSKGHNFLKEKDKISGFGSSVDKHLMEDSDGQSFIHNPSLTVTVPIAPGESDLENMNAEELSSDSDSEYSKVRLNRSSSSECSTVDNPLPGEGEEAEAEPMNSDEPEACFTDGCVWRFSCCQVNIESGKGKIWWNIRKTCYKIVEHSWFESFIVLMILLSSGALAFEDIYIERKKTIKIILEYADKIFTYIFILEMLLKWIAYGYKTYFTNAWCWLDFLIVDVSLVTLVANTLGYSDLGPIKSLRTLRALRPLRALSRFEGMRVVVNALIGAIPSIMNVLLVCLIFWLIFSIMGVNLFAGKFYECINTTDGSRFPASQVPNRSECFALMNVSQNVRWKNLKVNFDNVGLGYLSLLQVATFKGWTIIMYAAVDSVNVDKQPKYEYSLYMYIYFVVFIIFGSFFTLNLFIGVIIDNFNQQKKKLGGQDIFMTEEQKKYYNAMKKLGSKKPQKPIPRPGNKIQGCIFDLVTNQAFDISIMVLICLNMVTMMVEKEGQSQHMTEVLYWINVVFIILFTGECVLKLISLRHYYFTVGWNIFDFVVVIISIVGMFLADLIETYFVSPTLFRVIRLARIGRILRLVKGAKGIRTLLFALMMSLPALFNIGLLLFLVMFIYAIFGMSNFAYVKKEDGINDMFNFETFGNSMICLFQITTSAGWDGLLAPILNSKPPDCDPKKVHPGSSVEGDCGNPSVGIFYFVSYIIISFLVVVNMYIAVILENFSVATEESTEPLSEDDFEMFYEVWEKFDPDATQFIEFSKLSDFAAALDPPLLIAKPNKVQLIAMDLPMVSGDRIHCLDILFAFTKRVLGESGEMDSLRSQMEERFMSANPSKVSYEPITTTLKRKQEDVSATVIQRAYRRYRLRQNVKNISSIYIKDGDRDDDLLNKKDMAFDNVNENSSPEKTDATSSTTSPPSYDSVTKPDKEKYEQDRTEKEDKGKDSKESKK

IC50 (Human Nav1.7) [µM] | Hu CYP3A4 mRNA Induction (10 uM POC) (CYP3A4) [%] | SMILES
0.017 | 36 | COc1cc([C@H]2C[C@H](C(F)(F)F)C2)c(F)cc1-n1c(=O)ccc2cc(S(=O)(=O)Nc3ncccn3)ccc21 (atropisomer, axis not shown; (P)) [Example 15, trans-(P)-1-(5-fluoro-2-methoxy-4-(3-(trifluoromethyl)cyclobutyl)phenyl)-2-oxo-N-(pyrimidin-2-yl)-1,2-dihydroquinoline-6-sulfonamide]
0.01 | 88 | COc1cc(C2CCC2)c(Cl)cc1-n1c(=O)ccc2cc(S(=O)(=O)Nc3ncco3)ccc21 (atropisomer, axis not shown; (P)) [Example 32, (P)-1-(5-chloro-4-cyclobutyl-2-methoxyphenyl)-N-(oxazol-2-yl)-2-oxo-1,2-dihydroquinoline-6-sulfonamide]
0.008 | 6.6 | COc1cc([C@H]2C[C@H](C(F)(F)F)C2)c(F)cc1-n1c(=O)ccc2c(F)c(S(=O)(=O)Nc3ccon3)ccc21 (atropisomer, axis not shown; (P)) [Example 46, trans-(P)-5-fluoro-1-(5-fluoro-2-methoxy-4-(3-(trifluoromethyl)cyclobutyl)phenyl)-N-(isoxazol-3-yl)-2-oxo-1,2-dihydroquinoline-6-sulfonamide]
0.01 |  | COc1cc(C2CC(F)(F)C2)c(Cl)cc1-n1c(=O)ccc2cc(S(=O)(=O)Nc3ccon3)ccc21 (atropisomer, axis not shown; (P)) [Example 48, (P)-1-(5-chloro-4-(3,3-difluorocyclobutyl)-2-methoxyphenyl)-N-(isoxazol-3-yl)-2-oxo-1,2-dihydroquinoline-6-sulfonamide]
0.01 |  | COc1cc([C@H]2C[C@H](C(F)(F)F)C2)c(Cl)cc1-n1c(=O)ccc2cc(S(=O)(=O)Nc3ncco3)ccc21 (atropisomer, axis not shown; (P)) [Example 49, trans (P)-1-(5-chloro-2-methoxy-4-((1R,3R)-3-(trifluoromethyl)cyclobutyl)phenyl)-N-(oxazol-2-yl)-2-oxo-1,2-dihydroquinoline-6-sulfonamide]
0.008 |  | COc1cc([C@H]2C[C@H](OC(F)(F)F)C2)c(F)cc1-n1c(=O)ccc2cc(S(=O)(=O)Nc3ccon3)ccc21 (single isomer, unassigned) [Example 45, trans-(P)-1-(5-fluoro-2-methoxy-4-(3-(trifluoromethoxy)cyclobutyl)phenyl)-N-(isoxazol-3-yl)-2-oxo-1,2-dihydroquinoline-6-sulfonamide]
0.048 |  | COc1cc(C2CC2)c(F)cc1-n1c(=O)ccc2cc(S(=O)(=O)Nc3ccon3)ccc21 [Compound X, 1-(4-cyclopropyl-5-fluoro-2-methoxyphenyl)-N-(isoxazol-3-yl)-2-oxo-1,2-dihydroquinoline-6-sulfonamide, reference compound]

SMILES | IC50 (Human Nav1.7) [µM] | Hu CYP3A4 mRNA Induction (10 uM POC) (CYP3A4) [%]
COc1cc([C@H]2C[C@H](C(F)(F)F)C2)c(C)cc1-n1c(=O)ccc2cc(S(=O)(=O)Nc3ncccn3)ccc21 (atropisomer, axis not shown; (P)) [Example 37, trans-(P)-1-(2-methoxy-5-methyl-4-(3-(trifluoromethyl)cyclobutyl)phenyl)-2-oxo-N-(pyrimidin-2-yl)-1,2-dihydroquinoline-6-sulfonamide] |  | 49.51
